From ChEMBL document CHEMBL5046270, “A Selective and Orally Bioavailable Quinoline-6-Carbonitrile-Based Inhibitor of CDK8/19 Mediator Kinase with Tumor-Enriched Pharmacokinetics” (J Med Chem, 2022)
Active and inactive are the calls of the source. No cut-off for these calls is given here.

Legend:
[1] = Inhibition of CDK8/CDK19 in MV4-11 cells and measured after 7 days by Spectra max iD5 microplate reader; assay type: cell-based, Homo sapiens
[2] = molecular target: Cyclin-dependent kinase 19 (Homo sapiens) (UniProt Q9BWU1); assay: Inhibition of human CDK19 at 2 uM by competition binding assay relative to control; details: values are per cent of control
[3] = molecular target: T1, Myosin-IIIb (Homo sapiens) (UniProt Q8WXR4); assay: Inhibition of human MYO3B at 2 uM by competition binding assay relative to control; details: values are per cent of control
T1 sequence (whole entry): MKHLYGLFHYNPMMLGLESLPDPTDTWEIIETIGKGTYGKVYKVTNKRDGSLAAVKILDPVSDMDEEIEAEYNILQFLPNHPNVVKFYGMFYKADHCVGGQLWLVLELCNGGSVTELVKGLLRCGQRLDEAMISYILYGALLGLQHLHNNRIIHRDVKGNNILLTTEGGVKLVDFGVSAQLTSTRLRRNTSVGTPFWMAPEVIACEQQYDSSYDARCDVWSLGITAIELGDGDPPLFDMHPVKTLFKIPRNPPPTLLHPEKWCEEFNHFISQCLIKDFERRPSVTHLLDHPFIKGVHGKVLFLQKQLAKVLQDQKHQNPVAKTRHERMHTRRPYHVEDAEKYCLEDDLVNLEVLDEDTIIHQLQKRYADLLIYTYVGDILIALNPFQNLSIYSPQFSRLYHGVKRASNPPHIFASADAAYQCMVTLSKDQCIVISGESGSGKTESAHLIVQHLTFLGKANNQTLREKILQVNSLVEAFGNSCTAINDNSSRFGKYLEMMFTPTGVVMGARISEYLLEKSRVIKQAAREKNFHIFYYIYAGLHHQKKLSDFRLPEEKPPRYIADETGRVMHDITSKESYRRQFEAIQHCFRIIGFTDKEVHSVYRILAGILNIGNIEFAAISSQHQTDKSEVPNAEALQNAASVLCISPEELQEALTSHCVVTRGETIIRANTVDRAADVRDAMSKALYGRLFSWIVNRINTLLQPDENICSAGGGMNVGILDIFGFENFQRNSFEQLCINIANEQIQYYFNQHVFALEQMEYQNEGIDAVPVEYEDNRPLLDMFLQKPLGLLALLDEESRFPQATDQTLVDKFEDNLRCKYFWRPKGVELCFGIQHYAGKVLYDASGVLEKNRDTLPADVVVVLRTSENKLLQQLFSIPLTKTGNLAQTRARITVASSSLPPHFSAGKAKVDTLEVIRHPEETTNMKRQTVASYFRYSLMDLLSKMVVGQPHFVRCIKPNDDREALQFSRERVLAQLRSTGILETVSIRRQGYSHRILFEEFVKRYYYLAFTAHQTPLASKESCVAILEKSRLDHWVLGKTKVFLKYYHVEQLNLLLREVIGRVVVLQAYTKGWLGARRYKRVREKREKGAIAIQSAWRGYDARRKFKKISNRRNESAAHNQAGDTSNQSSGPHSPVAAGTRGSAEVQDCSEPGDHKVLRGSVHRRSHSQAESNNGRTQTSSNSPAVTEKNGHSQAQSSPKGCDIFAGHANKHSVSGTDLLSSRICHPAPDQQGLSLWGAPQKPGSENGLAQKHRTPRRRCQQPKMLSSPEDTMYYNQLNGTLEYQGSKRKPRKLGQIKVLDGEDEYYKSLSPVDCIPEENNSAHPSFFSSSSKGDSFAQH

[4] = molecular target: T2, CDK8/Cyclin C (Homo sapiens) (UniProt P49336+P24863); assay: Binding affinity to kinase tracer 236 binding to His tagged recombinant human CDK8/cyclinC assessed as rate constant (kon) by TR FRET based assay; assay type: protein-complex assay
[5] = molecular target: T3, Cyclin-C/Cyclin-dependent kinase 19 (Homo sapiens) (UniProt Q9BWU1+P24863); assay: Binding affinity to recombinant human CDK19/cyclinC assessed as rate constant (koff) by TR FRET based assay; assay type: protein-complex assay
[6] = molecular target: T3, Cyclin-C/Cyclin-dependent kinase 19 (Homo sapiens); assay: Binding affinity to recombinant human CDK19/cyclinC assessed as mean residence time by TR FRET based assay; assay type: protein-complex assay
[7] = molecular target: T2, CDK8/Cyclin C (Homo sapiens); assay: Binding affinity to kinase tracer 236 binding to His tagged recombinant human CDK8/cyclinC assessed as half life by TR FRET based assay; assay type: protein-complex assay
HEK293 = assay: Inhibition of TNFalpha induced CDK8/19 dependent NF kappa B activity CDK8/19 in double knockout HEK293 cell for 3 hrs by qt-PCR analysis; assay type: functional, cell-based; details: Homo sapiens
[8] = Downregulation of CDK8/19 in HEK293 cells assessed as mRNA expression level in KCTD12 gene at 1 uM for 3 hrs pretreatment and measured after 24 hr post wash-off by qt-PCR analysis; assay type: functional; details: Homo sapiens, time 27 hrs
[9] = Metabolic stability in human hepatocyte assessed as intrinsic clearance at 2 uM measured per 10^6 by LC-MS/MS analysis; assay type: ADME, cell-based; details: hepatocytes
[10] = Plasma C0 in BALB/c mouse xenografted with mouse CT26 cells at 2.5 mg/kg, iv by LC-MS/MS analysis; assay type: ADME, organism-based
[11] = Half life in tumor of BALB/c mouse xenografted with mouse CT26 cells at 2.5 mg/kg, iv by LC-MS/MS analysis; assay type: ADME, organism-based, Neoplasm
[12] = Tmax in tumor of BALB/c mouse xenografted with mouse CT26 cells at 2.5 mg/kg, iv by LC-MS/MS analysis; assay type: ADME, organism-based, Neoplasm
[13] = Elimination rate constant in plasma of BALB/c mouse xenografted with mouse CT26 cells at 2.5 mg/kg, iv by LC-MS/MS analysis; assay type: ADME, organism-based
[14] = Half life in plasma of BALB/c mouse xenografted with mouse CT26 cells at 100 mg/kg, po by LC-MS/MS analysis; assay type: ADME, organism-based
[15] = Oral bioavailability in plasma of BALB/c mouse xenografted with mouse CT26 cells at 100 mg/kg by LC-MS/MS; assay type: ADME, organism-based
[16] = Oral bioavailability in tumor of BALB/c mouse xenografted with mouse CT26 cells at 100 mg/kg by LC-MS/MS; assay type: ADME, organism-based, Neoplasm
CT26 = assay: Downregulation of KLF2 gene expression in BALB/c mouse xenografted with mouse CT26 cells at 100 mg/kg, po 2 to 12 hrs […]; assay type: functional, organism-based; details: time 2-12 hrs, TDE = time-dependent effect
[17] = Toxicity in BALB/c mouse bearing CT26 tumor model assessed as change in body weight at 100 mg/kg, po qd for 7 days by LC-MS/MS analysis; assay type: organism-based; details: in vivo, 168 h, time 7 day
[18] = Drug accumulation in lung of BALB/c mouse bearing CT26 tumor model at 100 mg/kg, po for 7 days by LC-MS/MS analysis; assay type: ADME, organism-based; details: in vivo, 168 h, time 7 day
[19] = Drug accumulation in liver of BALB/c mouse bearing CT26 tumor model at 100 mg/kg, po for 7 days by LC-MS/MS analysis; assay type: ADME, organism-based; details: in vivo, 168 h, time 7 day
[20] = AUC (0-24hrs) in plasma of BALB/c mouse xenografted with mouse CT26 cells at 2.5 mg/kg, iv by LC-MS/MS analysis; assay type: ADME, organism-based; design: time < 24 hr, route intravenous, dose 2.5 mg/kg; details: in vivo
[21] = Cmax in tumor of BALB/c mouse xenografted with mouse CT26 cells at 100 mg/kg, po by LC-MS/MS analysis; assay type: ADME, organism-based, Neoplasm; design: route oral, dose 100 mg/kg

Sequence of Cyclin-dependent kinase 19 (Homo sapiens) (Q9BWU1 whole entry): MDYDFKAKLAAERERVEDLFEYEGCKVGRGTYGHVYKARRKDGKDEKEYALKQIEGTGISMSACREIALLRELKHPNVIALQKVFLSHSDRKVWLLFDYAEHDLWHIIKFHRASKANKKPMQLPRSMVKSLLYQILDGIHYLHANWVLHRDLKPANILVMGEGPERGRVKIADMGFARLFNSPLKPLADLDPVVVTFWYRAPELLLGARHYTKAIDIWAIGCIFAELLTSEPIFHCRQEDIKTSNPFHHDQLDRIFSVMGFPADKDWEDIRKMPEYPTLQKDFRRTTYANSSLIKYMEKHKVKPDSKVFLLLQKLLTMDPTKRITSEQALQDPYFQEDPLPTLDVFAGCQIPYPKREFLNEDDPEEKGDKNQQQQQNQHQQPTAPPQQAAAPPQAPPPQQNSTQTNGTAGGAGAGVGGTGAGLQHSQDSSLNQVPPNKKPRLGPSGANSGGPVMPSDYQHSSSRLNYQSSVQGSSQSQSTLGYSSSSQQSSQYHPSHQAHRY

CN1CCN(C(=O)c2ccc3cc(CCNc4ccnc5ccc(C#N)cc45)ccc3c2)CC1
IC50 [1]: 108 nM
residual binding, % of control [2]: 13%
residual binding, % of control [3]: 31%
K [4]: 8.78 10^6/M/s
K [5]: 0.00272 s⁻¹
MRT [6]: 4.25 min
T1/2 [7]: 9.45 min
Activity (HEK293): inactive
inhibition at 1 µM [8]: 30%
CLH [9]: 0.00639 mL/min
C0 [10]: 503 ng/mL
half-life [11]: 726 min
Tmax [12]: 34.8 min
k el [13]: 0.000258 s⁻¹
half-life [14]: 212 min
bioavailability [15]: 16.5%
bioavailability [16]: 34.6%
Activity (CT26): Tde
Activity [17]: Non-Toxic
Drug uptake [18]: Active
Drug uptake [19]: Active
AUC [20]: 331 ng·h/mL
Cmax [21]: 5730 ng/mL
